Measurements from US5447931A, “New therapeutic use of heterocyclylpiperazines as 5-HT3 agonists and new compounds” (Sanofi, priority 1992, dated 1995).

Tested on: 5-HT3 receptors
Assay: Bezold-Jarisch effect (reduction of heart rate) in the anesthetized rat, intravenous administration
Assay type: in vivo, Sprague-Dawley rats
Conditions: antagonist against the heart rate reduction by compounds of formula (I)

| SMILES | inhibition by antagonist of the Bezold-Jarisch effect evoked by compounds of formula (I) |
| --- | --- |
| COc1cc(N)c(Cl)cc1C(=O)NC1CN2CCC1CC2 (centres unmarked) [zacopride] | inhibited |
| CN1[C@@H]2CC[C@H]1C[C@@H](OC(=O)c1c[nH]c3ccccc13)C2 [ICS 205-930] | inhibited |
